In patent US9730944B2, “Antiviral activity of novel bicyclic heterocycles” (priority 2010, dated 2017):
Values after ≈ are worked out from the molar mass of the structure shown. Where two headings read alike, the source gives them in different places.

Key:
HIV-1 strain IIIB = assay: Inhibition of replication of HIV-1 (IIIB strain) in MT-4 cells, MTT assay; type: cell-based; conditions: Human immunodeficiency virus 1, IIIB, MT4, 120 h, read-out: EC50 (μM) HIV-1 (IIIB)
HIV-2 strain (ROD) = assay: Inhibition of replication of HIV-2 (ROD strain) in MT-4 cells, MTT assay; type: cell-based; conditions: Human immunodeficiency virus 2, MT4, 120 h, read-out: EC50 (μM) HIV-2 (ROD)
poliovirus (PV type 1) = assay: microbe, parasite or virus in culture; type: cell-based; conditions: Enterovirus C, read-out: PV-1 EC50
poliovirus (PV type 2) = assay: microbe, parasite or virus in culture; type: cell-based; conditions: Enterovirus C, read-out: PV-2 EC50
poliovirus (PV type 3) = assay: microbe, parasite or virus in culture; type: cell-based; conditions: Enterovirus C, read-out: PV-3 EC50
in vitro [1] = conditions: human
in vitro [2] = conditions: African green monkey, PV CC50
in vitro [3] = conditions: human, PV CC50
[4] = MT-4 cells, MTT assay, five days after infection, 50% protection from cytopathic effect

Row | SMILES | EC50 (HIV-1 strain IIIB) | EC50 (HIV-2 strain (ROD)) | EC50 (poliovirus (PV type 1); HeLa) | EC50 (poliovirus (PV type 1); Vero) | EC50 (poliovirus (PV type 2); HeLa) | EC50 (poliovirus (PV type 2); Vero) | EC50 (poliovirus (PV type 3); HeLa) | EC50 (poliovirus (PV type 3); Vero) | CC50 (in vitro [1]) | CC50 (in vitro [2]) | CC50 (in vitro [3]) | EC50 (HIV-1 strain IIIB; [4]) | EC50 (HIV-2 strain (ROD); [4])
1 | CCOC(=O)c1nc(N2CCN(C(=O)Nc3cccc(C)c3)CC2)c2cc(-c3ccc(F)cc3)sc2n1 [Example 361, ethyl 6-(4-fluorophenyl)-4-(4-(m-tolylcarbamoyl)piperazin-1-yl)thieno[2,3-d]pyrimidine-2-carboxylate] | ≥ 156 µM | ≥ 156 µM | > 50 µg/mL | > 50 µg/mL | ≥ 50 µg/mL | > 50 µg/mL | > 50 µg/mL | > 50 µg/mL | 156 µM | 61.7 µg/mL (≈ 119 µM) | > 50 µg/mL |  | 
2 | Cc1cccc(NC(=O)N2CCN(c3nc(-c4ccccc4)nc4sc(-c5ccc(F)cc5)cc34)CC2)c1 [Example 360, 4-(6-(4-fluorophenyl)-2-phenylthieno[2,3-d]pyrimidin-4-yl)-N-m-tolylpiperazine-1-carboxamide] |  |  | > 50 µg/mL | > 50 µg/mL | ≥ 50 µg/mL | 10.5 µg/mL (≈ 20.1 µM) | > 50 µg/mL | > 50 µg/mL | > 239 µM | 93.4 µg/mL (≈ 178 µM) | > 50 µg/mL | > 239 µM | > 239 µM
3 | Nc1nc(N2CCN(C(=O)COc3ccc(Cl)cc3)CC2)c2nc(CCOc3ccc(F)cc3)sc2n1 [Example 48, 1-(4-(5-amino-2-(2-(4-fluorophenoxy)ethyl)thiazolo[5,4-d]pyrimidin-7-yl)piperazin-1-yl)-2-(4-chlorophenoxy)ethanone] |  |  | 0.35 µg/mL (≈ 0.645 µM) | 0.11 µg/mL (≈ 0.203 µM) | 0.36 µg/mL (≈ 0.663 µM) | 0.082 µg/mL (≈ 0.151 µM) | 0.97 µg/mL (≈ 1.79 µM) | 0.36 µg/mL (≈ 0.663 µM) | 11.7 µM | > 150 µg/mL | 49.4 µg/mL (≈ 91 µM) | 0.63 µM | 5.12 µM
4 | COc1ccc(OCC(=O)N2CCN(c3ncnc4sc(CCc5ccc(F)cc5)nc34)CC2)cc1 [Example 302, 1-(4-(2-(4-fluorophenethyl)thiazolo[5,4-d]pyrimidin-7-yl)piperazin-1-yl)-2-(4-methoxyphenoxy)ethanone] |  |  | < 0.023 µg/mL | < 0.023 µg/mL | < 0.023 µg/mL | < 0.023 µg/mL | < 0.023 µg/mL | 0.085 µg/mL (≈ 0.167 µM) |  | 50 µg/mL (≈ 98.5 µM) | > 50 µg/mL |  | 
5 | Cc1nc(N2CCN(C(=O)COc3ccc(Cl)cc3)CC2)c2nc(-c3ccc(F)cc3)oc2n1 [Example 168, 2-(4-chlorophenoxy)-1-(4-(2-(4-fluorophenyl)-5-methyl-oxazolo[5,4-d]pyrimidin-7-yl)piperazin-1-yl)ethanone] |  |  | > 50 µg/mL | > 50 µg/mL | ≥ 50 µg/mL | ≥ 50 µg/mL | > 50 µg/mL | > 50 µg/mL | > 50 µM | 83.3 µg/mL (≈ 173 µM) | > 50 µg/mL | > 50 µM | > 50 µM
6 | COCCN1CCN(c2nc(N)nc3oc(-c4ccc(F)cc4)nc23)CC1 [Example 192, 5-amino-2-(4-fluorophenyl)-7-[4-(2-methoxyethyl)-piperazin-1-yl]-oxazolo[5,4-d]pyrimidine] |  |  | > 50 µg/mL | > 50 µg/mL | > 50 µg/mL | ≥ 50 µg/mL | > 50 µg/mL | > 50 µg/mL |  | 100 µg/mL (≈ 269 µM) | > 50 µg/mL |  | 
7 | Nc1nc(N2CCN(C(=O)COc3ccc(Cl)cc3)CC2)c2nc(C3CC3)oc2n1 [Example 185, 5-amino-2-cyclopropyl-7-[4-(4-chlorophenoxyacetyl)piperazin-1-yl]-oxazolo[5,4-d]pyrimidine] |  |  | 0.4 µg/mL (≈ 0.933 µM) | 2.17 µg/mL (≈ 5.06 µM) | ≥ 50 µg/mL | 5.48 µg/mL (≈ 12.8 µM) | > 50 µg/mL | > 50 µg/mL |  | 97.7 µg/mL (≈ 228 µM) | > 50 µg/mL |  | 
8 | O=C(COc1ccc(Cl)cc1)N1CCN(c2ncnc3oc(Cc4ccc(F)cc4)nc23)CC1 [Example 170, 2-(4-chlorophenoxy)-1-(4-(2-(4-fluorobenzyl)oxazolo[5,4-d]pyrimidin-7-yl)piperazin-1-yl)ethanone] |  |  | > 50 µg/mL | > 50 µg/mL | ≥ 50 µg/mL | 1.76 µg/mL (≈ 3.65 µM) | > 50 µg/mL | > 50 µg/mL | > 50 µM | 105 µg/mL (≈ 218 µM) | > 50 µg/mL | 4.03 µM | > 50 µM
9 | CCCCc1nc(N2CCN(C(=O)COc3ccc(Cl)cc3)CC2)c2cc(-c3ccc(F)cc3)sc2n1 [Example 313, 1-(4-(2-butyl-6-(4-fluorophenyl)thieno[2,3-d]pyrimidin-4-yl)piperazin-1-yl)-2-(4-chlorophenoxy)ethanone] |  |  | > 50 µg/mL | > 50 µg/mL | ≥ 50 µg/mL | ≥ 50 µg/mL | > 50 µg/mL | > 50 µg/mL |  | > 150 µg/mL | > 50 µg/mL |  | 
10 | CCCCCc1nc2c(N3CCN(C(=O)COc4ccc(Cl)cc4)CC3)nc(N)nc2o1 [Example 188, 5-amino-7-[4-(4-chlorophenoxyacetyl)piperazin-1-yl]-2-pentyloxazolo[5,4-d]pyrimidine] |  |  | 0.38 µg/mL (≈ 0.828 µM) | 0.14 µg/mL (≈ 0.305 µM) | 0.36 µg/mL (≈ 0.784 µM) | 0.11 µg/mL (≈ 0.24 µM) | 0.48 µg/mL (≈ 1.05 µM) | 0.32 µg/mL (≈ 0.697 µM) |  | 103 µg/mL (≈ 225 µM) | > 50 µg/mL |  | 
11 | O=C(COc1ccc(Cl)cc1)N1CCN(c2ncnc3sc(-c4ccc(F)cc4)cc23)CC1 [Example 312, 2-(4-chlorophenoxy)-1-(4-(6-(4-fluorophenyl)thieno[2,3-d]pyrimidin-4-yl)piperazin-1-yl)ethanone] |  |  | 3.77 µg/mL (≈ 7.81 µM) | 1.12 µg/mL (≈ 2.32 µM) | 1.28 µg/mL (≈ 2.65 µM) | 0.68 µg/mL (≈ 1.41 µM) | > 1.85 µg/mL | 2.05 µg/mL (≈ 4.24 µM) |  | 116 µg/mL (≈ 240 µM) | > 50 µg/mL |  | 
12 | CC(C)CN1CCN(c2nc(N)nc3oc(-c4ccc(F)cc4)nc23)CC1 [Example 190, 5-amino-2-(4-fluorophenyl)-7-(4-isobutylpiperazin-1-yl)-oxazolo[5,4-d]pyrimidine] |  |  | 1.15 µg/mL (≈ 3.1 µM) | 1.08 µg/mL (≈ 2.92 µM) | 1.17 µg/mL (≈ 3.16 µM) | 1.02 µg/mL (≈ 2.75 µM) | 1.13 µg/mL (≈ 3.05 µM) | 2.79 µg/mL (≈ 7.53 µM) |  | 130 µg/mL (≈ 352 µM) | 32.3 µg/mL (≈ 87.2 µM) |  | 
13 | C[C@@]1(O)[C@H](O)[C@@H](CO)O[C@H]1n1ccc(N)nc1=O [2′-C-methylcytidine] |  |  | 3.74 µg/mL (≈ 14.5 µM) | 3.58 µg/mL (≈ 13.9 µM) | 7.27 µg/mL (≈ 28.3 µM) | 4.6 µg/mL (≈ 17.9 µM) | 11.4 µg/mL (≈ 44.4 µM) | 15.3 µg/mL (≈ 59.6 µM) |  | > 150 µg/mL | > 50 µg/mL |  | 
14 | CC(C)S(=O)(=O)n1c(N)nc2ccc(/C(=N/O)c3ccccc3)cc21 [Enviroxime] |  |  | 0.13 µg/mL (≈ 0.363 µM) | 0.11 µg/mL (≈ 0.307 µM) | 0.041 µg/mL (≈ 0.114 µM) | 0.04 µg/mL (≈ 0.112 µM) | 0.12 µg/mL (≈ 0.335 µM) | 1.03 µg/mL (≈ 2.87 µM) |  | > 150 µg/mL | 21.2 µg/mL (≈ 59.3 µM) |  | 
15 | CC(=O)N1CCN(c2nc(N)nc3oc(-c4ccc(F)cc4)nc23)CC1 [Example 191, 5-amino-2-(4-fluorophenyl)-7-(4-acetylpiperazin-1-yl)-oxazolo[5,4-d]pyrimidine] |  |  | 28.6 µg/mL (≈ 80.3 µM) | 27.5 µg/mL (≈ 77.1 µM) | ≥ 50 µg/mL | 21.6 µg/mL (≈ 60.6 µM) | > 50 µg/mL | > 50 µg/mL |  | 112 µg/mL (≈ 313 µM) | > 50 µg/mL |  | 
